Laboratory results as given in publication PMC12040169 (PLOS Biology, 2025).

test: in vitro; conditions: human, hela cells, % viability

Compound | viability at 28.5 h, 10 µM
Cn1cc(-c2nc(C3COCCN3C(=O)c3cccc(Cl)c3)no2)cn1 (stereo not shown) [CBK305443] | 80.1%
CC(Cc1c[nH]c2ccccc12)NC(=O)CSS(=O)(=O)O (stereo not shown) [CBK260942N] | 93.3%
CC(C)c1ccc(/C=C/C(=O)NCc2ccc(S(N)(=O)=O)cc2)cc1 [CBK161511] | 110%
S=c1[nH]nc(Nc2ccccc2)n1-c1ccccc1 [CBK026332] | 123%
COc1cc2c(cc1OC)C1c3ccccc3N(Cn3nnc4ccccc43)C(=O)N1CC2 (stereo not shown) [CBK286193] | 84.2%
C[C@H](c1ccccc1)n1c(=O)[nH]c2ncc(-c3cccc4ncccc34)nc21 [CBK064173] | 89.6%
N=C(N)NCC(=O)N(CCc1cc(C(F)(F)F)cc(C(F)(F)F)c1)c1cccc2ccccc12 [CBK001122T] | 105%
CN(C)CCNC(=O)c1ccc(-c2cnc3[nH]c(=O)n(C4CCCC4)c3n2)cc1 [CBK064957] | 110%
CCc1ncc(C(=O)N(Cc2ccccn2)CC2CCCO2)cn1 (stereo not shown) [CBK307077] | 95.1%
O=C(CSc1ncn[nH]1)N/N=C/c1cn(-c2ccccc2)nc1-c1ccccc1 [CBK262850] | 101%
COCCNC(=O)c1cnn2c(C)c(Cc3cccc(C#N)c3)c(C)nc12 [CBK162096] | 94.6%
COCc1ccc(-c2nccnc2NS(C)(=O)=O)cc1 [CBK049631] | 101%
c1cnc(N2CCCC2)c(OC2CCCNC2)n1 (stereo not shown) [CBK115283] | 90.2%
N#C/C(=C\Nc1ccc(S(N)(=O)=O)cc1)c1nc(-c2cc3c(ccc4ccccc43)oc2=O)cs1 [CBK262376] | 105%
CCCNC(C)C(=O)Nc1c(C)csc1C(=O)O (stereo not shown) [CBK287064] | 113%
CC1CN(C(=S)Nc2ccc(NC(=S)N3CC(C)OC(C)C3)cc2)CC(C)O1 (stereo not shown) [CBK004991] | 78.9%
COc1ccc(-c2noc(CNC(=O)Nc3ccccc3)n2)cc1OC [CBK269900] | 88.3%
COc1ccc(C(C)C)cc1-c1cnc(N)c(N2CCOCC2)n1 [CBK063384] | 92.1%
COc1cc(C2N(Cc3ccccc3)CCN2Cc2ccccc2)ccc1OC(C)=O [CBK261349] | 89.2%
COc1ccccc1-n1nc(CC(C)C)nc1C(C)NS(C)(=O)=O (stereo not shown) [CBK306660] | 95.6%
CC(C)C[C@H](NC(=O)COc1ccc2nc3n(c(=O)c2c1)CCCCC3)C(=O)O [CBK286656] | 88.3%
CC(NCc1ccc(S(N)(=O)=O)cc1)=C1C(=O)c2ccccc2C1=O [CBK262692] | 87%

Compound | viability at 28.5 h, 10 µM
Cc1ccn2c(NS(=O)(=O)c3ccc(CCC(=O)O)cc3)c(-c3cccs3)nc2c1 [CBK297480] | 110%
CCn1cc(C(=O)O)c(=O)c2cnc(N3CCN(C(=S)NC(=O)c4c(-c5ccccc5)noc4C)CC3)nc21 [CBK267491] | 85%
FC(F)(F)c1ccnc(OCCN2CCNCC2)n1 [CBK113297] | 97.5%
Cc1noc(C)c1C[S+]([O-])c1ccc(Br)cc1 (stereo not shown) [CBK034195] | 95.6%
CCCCN1C(=O)N(c2nnc(C(C)(C)C)s2)C(=O)C1c1ccc(Cl)c(Cl)c1 (stereo not shown) [CBK085921] | 114%
O=C(Nc1ccc2n(c1=O)C[C@H]1C[C@@H]2CN(C(=O)Cc2cccs2)C1)c1ccco1 [CBK289204] | 102%
COc1ccc(C2(C(=O)NCc3ccc(Cl)c(Cl)c3)CC2)cc1 [CBK149827] | 98.7%
CN1CCN(S(=O)(=O)c2ccc(C(C)(C)C)cc2)CC1 [CBK051237] | 106%
CCc1cccc(CC)c1NC(=O)CC1SC(NCc2ccc(C)cc2)=NC1=O (stereo not shown) [CBK059431] | 118%
Cc1ocnc1C(=O)NCC1CCN(c2ccccc2F)C1 (stereo not shown) [CBK304671] | 92.6%
O=C(Nc1cc(-c2nc3ncccc3o2)ccc1Cl)c1cccnc1 [CBK269700] | 90.8%
COc1ccc2[nH]c3c(c2c1)CCN(S(C)(=O)=O)C31CCN(CCOc2ccccc2)C1 (stereo not shown) [CBK063187T] | 92.9%
Cc1ccc2oc(-c3ccc(C)c(NC(=S)NC(=O)c4ccc([N+](=O)[O-])cc4)c3)nc2c1 [CBK263897] | 90.4%
Cc1ccc(C)c(OCCNCCN(C)C)c1Cl [CBK267816C] | 88.5%
COCc1nc(NCCCn2c(C)cccc2=O)cc([C@H]2C[C@H](N)C2)n1 [CBK307337] | 103%
COc1ccc(-c2cnc3[nH]c(=O)n([C@H](CO)C(C)C)c3n2)c(OC)c1OC [CBK065008] | 99.1%
CS(=O)(=O)c1ccc(Nc2ccc3c(c2)COC2(CCN(C(=O)Cc4ccc(F)cc4F)C2)O3)cc1 (stereo not shown) [CBK131948] | 90.8%
CC(CC(=O)NC(c1ccc(F)cc1)c1nccn1C)n1cccn1 (stereo not shown) [CBK281454] | 93.7%
COC[C@@H]1CCCN1S(=O)(=O)c1ccc(C(C)C)cc1 [CBK200045] | 110%
Cc1nc(C2CCN(C(=O)c3ccccn3)CC2)c2sccn12 [CBK282238] | 91.6%
CCOC(=O)C1=NN(C(=O)c2ccc(Cl)cc2)C(O)(C(C)(C)C)C1 (stereo not shown) [CBK026308] | 86%
Cc1noc(C)c1C(=O)N1C2CCC1CC(c1ccc(F)cc1)C2 (stereo not shown) [CBK283738] | 102%

Compound | viability at 28.5 h, 10 µM
Cc1cc(=O)n2c3c(cc(S(=O)(=O)NC4CC4)cc13)CCC2 [CBK307572] | 87%
Cc1nnc(SCc2cc(=O)[nH]c(N3CCN(c4ccccc4F)CC3)n2)s1 [CBK270017] | 97.8%
O=C(Cc1n[nH]c(=O)[nH]c1=O)N/N=C/c1cccc(Br)c1 [CBK263086] | 83%
c1ccc(-c2ccc(OCCCCN3CCNCC3)cc2)cc1 [CBK266028G] | 95.8%
CN(C)CCNC(=S)Nc1ccc([N+](=O)[O-])cc1 [CBK266964] | 97.7%
Cc1ccccc1NC(=O)CC1c2ccccc2CC(C)(C)N1C (stereo not shown) [CBK262567] | 87.4%
CCC(=O)N1CCCc2cc(C(O)CN3CCCC(C)C3)ccc21 (stereo not shown) [CBK283049] | 89.2%
O=C(O)COc1ccc(S(=O)(=O)N2CCc3ccccc32)cc1 [CBK269882] | 102%
COc1cc(NC(=O)N2CCC3(CC2)CC(=O)c2ccc(C)cc2O3)cc(OC)c1 [CBK166521] | 90.3%
O=C(c1ccc2[nH]ccc2c1)N1CCN(CC2CCOC2)CC1 (stereo not shown) [CBK304866] | 111%
O=S(=O)(NC1c2cccc3cccc(c23)C1N1CCNCC1)c1ccc(Cl)cc1 (stereo not shown) [CBK264082] | 92.2%
Cc1ccc(C(=O)c2coc3ccc(OCC(=O)O)cc23)cc1 [CBK263084] | 86.6%
COc1ccccc1NC(=O)CCSc1nc(C)cc(C)n1 [CBK266371] | 103%
COc1cc(NC(=O)CC2(C(=O)O)CCCCC2)ccc1N1CCCC1=O [CBK296761] | 109%
Nc1ncnc2c1nc(N)n2[C@H]1C[C@@H](O)[C@@H](CO)O1 [CBK201222] | 101%
Cc1c(Cl)c([N+](=O)[O-])nn1CCCC(=O)Nc1sc2c(c1C#N)CCC(C(C)(C)C)C2 (stereo not shown) [CBK269111] | 108%
c1cc(CNc2nccnc2-c2ccsc2)ccn1 [CBK037513] | 103%
Cc1ccc2ccccc2c1Cn1cc(-c2ccc([N+](=O)[O-])cc2)nc1SCC(=O)NC(C)(C)C [CBK264493] | 115%
Cc1ccc(SC(C)C(=O)NCCCN2CCOCC2)cc1 (stereo not shown) [CBK268624] | 88.5%
CN1CC2(CCCN(Cc3nnc(-c4cccnc4)o3)C2)OC1=O (stereo not shown) [CBK306888] | 110%
Cc1ccc(C)c(-c2nc(-c3cccnc3)no2)c1 [CBK288018] | 102%
Cc1[nH]c2ccccc2c1C(=O)CSc1nnc(Cc2cccs2)n1C [CBK268663] | 105%

Compound | viability at 28.5 h, 10 µM
O=C1CC[C@@H](NCc2ccsc2)[C@H](c2cc(F)cc(F)c2)N1 [CBK282910] | 102%
Fc1ccc(-c2c[nH]nc2C2CCOCC2)cc1 [CBK283464] | 103%
Cc1nc(NC(=N)Nc2ccccc2C(F)(F)F)[nH]c(=O)c1Cc1ccccc1 [CBK269083] | 99.8%
c1ccc(Oc2nc3ccccc3n3cnnc23)cc1 [CBK287945] | 91.9%
COc1cccc(C(=O)N2CCC(NC(=O)Cc3ccc(F)cc3)CC2)c1 [CBK155027] | 85%
S=c1[nH]nnn1-c1ccc(Cl)c(Cl)c1 [CBK016327] | 96.7%
Cc1cc(-c2cccs2)c(C#N)c(SCc2cccnc2)n1 [CBK270172] | 81%
OCCCNCC(O)CN1c2ccccc2Sc2ccccc21 (stereo not shown) [CBK027632G] | 98.4%
COc1ccc(-n2ncc(CN(C)C)n2)cc1OC [CBK112862] | 101%
Cc1c(C(=O)Nc2ccccn2)sc2nc(-c3ccccc3)cn12 [CBK287501] | 98.3%
O=C(O)COc1ccc(S(=O)(=O)N2CCCCC2)cc1Cl [CBK268419] | 105%
O=C(Cc1ccccc1)N(Cc1ccco1)C1CCN(c2ccc3c(c2)OCCO3)CC1 [CBK286529] | 106%
FC(F)(F)c1cccnc1Sc1nc[nH]n1 [CBK115213] | 102%
CCN1C(=O)COC[C@@H]1[C@H](O)c1ccc(NC(=O)c2ccco2)cc1 [CBK289695] | 85.3%
CN1CCC(OCCCn2ccnc2-c2nccn2C)CC1 [CBK307683] | 96.2%
Nn1c(=O)c2ccccc2n2c(SCC(=O)N(c3ccccc3)c3ccccc3)nnc12 [CBK266621] | 99.3%
Cc1cc2cc(C(=O)NCC3CCCN(C(C)C)C3)ccc2o1 (stereo not shown) [CBK282625] | 105%
Sc1nnc(C2CCCC2)n1CC1CCCO1 (stereo not shown) [CBK288413] | 107%
COC(=O)[C@H](NC(=O)C1CCN(C(=O)OCc2ccccc2)CC1)c1ccccc1 [CBK081466] | 88.1%
N#Cc1ccc(S(=O)(=O)N2CCC(OCc3ccncc3)C2)cn1 (stereo not shown) [CBK305478] | 91%
O=C(CCCN1CCN(C(=O)NC2CCC(O)CC2)CC1)c1ccc(F)cc1 (stereo not shown) [CBK025156C] | 97%
COc1ccccc1-c1nnc(Sc2nc([N+](=O)[O-])nn2C)o1 [CBK266858] | 85.1%
